From patent publication US20200024299A1, “CRYSTALLINE FORMS OF A BILE ACID DERIVATIVE” (Intercept Pharmaceuticals, Inc., priority 2016, published 2020)
Entries after “also recorded” stand apart in the source; their conditions may differ.

Columns and labels:
Format in all cases: physicochemical
[1] = Gravimetric Vapor Sorption (GVS), hygroscopicity
Description: Sorption isotherms were obtained using a SMS DVS Intrinsic moisture sorption analyzer, controlled by DVS Intrinsic Control software v1.0.1.2 (or v 1.0.1.3). The sample temperature was maintained at 25° C. by the instrument controls. The humidity was controlled by mixing streams of dry and wet nitrogen, with a total flow rate of 200 mL/min. The relative humidity was measured by a calibrated Rotronic probe (dynamic range of 1.0-100% RH), located near the sample. The weight change, (mass relaxation) of the sample as a function of % RH was constantly monitored by the microbalance (accuracy ±0.005 mg).
Typically, 5-20 mg of sample was placed in a tared mesh stainless steel basket under ambient conditions. The sample was loaded and unloaded at 40% RH and 25° C. (typical room conditions). A moisture sorption isotherm was performed as outlined below (2 scans giving 1 complete cycle). The standard isotherm was performed at 25° C. at 10% RH intervals over a 0-90% RH range. Data analysis was carried out using Microsoft Excel using DVS Analysis Suite v6.2 (or 6.1 or 6.0).

[2] = Storage stability at controlled temperature / relative humidity
[3] = Aqueous solubility at 25° C.; settings: water
[4] = Variable Temperature XRPD (physical stability on heating); settings: upon heating
Description: X-Ray Powder Diffraction patterns were collected on a Bruker AXS C2 GADDS diffractometer using Cu Kα radiation (40 kV, 40 mA), automated XYZ stage, laser video microscope for auto-sample positioning and a HiStar 2-dimensional area detector. X-ray optics consists of a single Gobel multilayer mirror coupled with a pinhole collimator of 0.3 mm. A weekly performance check is carried out using a certified standard NIST 1976 Corundum (flat plate).
The beam divergence, i.e., the effective size of the X-ray beam on the sample, was approximately 4 mm. A 0-0 (theta-theta) continuous scan mode was employed with a sample—detector distance of 20 cm which gives an effective 20 (theta) range of 3.2°-29.7°. Typically, the sample would be exposed to the X-ray beam for 120 seconds. The software used for data collection was GADDS for XP/2000 4.1.43 and the data were analyzed and presented using Diffrac Plus EVA v15.0.0.0.
Samples run under non-ambient conditions were mounted on a silicon wafer with heat-conducting compound. The sample was then heated to the appropriate temperature at 20° C./min and subsequently held isothermally for 1 minute before data collection was initiated.

[5] = listed as Amorphous Form of Compound 1-Na

CC[C@H]1[C@@H](O)C2C3CC[C@H]([C@H](C)CCOS(=O)(=O)[O-])[C@@]3(C)CCC2[C@@]2(C)CC[C@@H](O)C[C@@H]12.[Na+] (stereo partly drawn) [6α-ethyl-3α,7α,23-trihydroxy-24-nor-5β-cholan-23-sulphate sodium]
GVS water uptake from 40% to 60% RH ([1]; 40% to 60% RH): 2.6% w/w of water uptake from 40% to 60% RH.
XRPD post GVS ([1]; after GVS): Unchanged
GVS hysteresis (process reversible) ([1]; sorption/desorption): ~1% w/w
GVS total water uptake ([1]; whole GVS cycle): Total of 8% w/w water uptake.
12 days Storage @ 25° C./60% RH ([2]; 12 days, 25° C./60% RH): Unchanged
12 days Storage @ 40° C./60% RH ([2]; 12 days, 40° C./60% RH): Unchanged

CC[C@H]1[C@@H](O)C2C3CC[C@H]([C@H](C)CCOS(=O)(=O)[O-])[C@@]3(C)CCC2[C@@]2(C)CC[C@@H](O)C[C@@H]12.[Na+] (stereo partly drawn) [Amorphous Compound 1-Na, 6α-ethyl-3α,7α,23-trihydroxy-24-nor-5β-cholan-23-sulphate sodium]
Aqueous Solubility (25° C.) [3]: >200 mg/mL
solubility [3]: > 200 mg/mL
Storage @ 25° C./60% RH ([2]; 25° C./60% RH): Unchanged for at least 1 month
Storage @ 25° C./60% RH ([2]; 25° C./60% RH, listed as Amorphous Form of Compound 1-Na): physically stable for at least 1 month
Storage @ 25° C./97% RH [2]: Deliquesced in less than days
Storage @ 25° C./97% RH [2, 5]: deliquescent
Storage @ 40° C./75% RH [2]: Deliquesced in less than 3 days
Storage @ 40° C./75% RH [2, 5]: deliquescent

CC[C@H]1[C@@H](O)C2C3CC[C@H]([C@H](C)CCOS(=O)(=O)[O-])[C@@]3(C)CCC2[C@@]2(C)CC[C@@H](O)C[C@@H]12.[Na+] (stereo partly drawn) [Example 5, 6α-ethyl-3α,7α,23-trihydroxy-24-nor-5β-cholan-23-sulphate sodium]
VT-XRPD [4]: unchanged upon heating
GVS water uptake from 40% to 80% RH ([1]; 25° C., 40% to 80% RH): 4 % w/w
GVS water uptake from 40% to 80% RH (equivalents of water) ([1]; 25° C., 40% to 80% RH): 1.1 eq
GVS water uptake from 80% to 90% RH ([1]; 25° C., 80% to 90% RH): 24 % w/w
GVS water uptake from 80% to 90% RH (equivalents of water) ([1]; 25° C., 80% to 90% RH): 6.6 eq
GVS: state of sample during the analysis ([1]; 25° C., up to 90% RH): the sample deliquesced
Hygroscopic profile from 40% to 80% RH ([1]; 40% to 80% RH): moderate hygroscopic profile
GVS water uptake at RH greater than 80% ([1]; RH greater than 80%): 24%
GVS water uptake at RH greater than 80% (equivalents of water) ([1]; RH greater than 80%): 6.6 eq
Hygroscopic profile at RH greater than 80% ([1]; RH greater than 80%): very hygroscopic profile
Storage @ 25° C./60% RH ([2]; 25° C./60% RH): stable for at least one month; also recorded: Unchanged for at least 1 month
Storage @ 25° C./97% RH [2]: deliquesced sample after 3 days; also recorded: Deliquesced in three days
Storage @ 40° C./75% RH [2]: deliquesced sample after 3 days; also recorded: Deliquesced in three days

CC[C@H]1[C@@H](O)C2C3CC[C@H]([C@H](C)CCOS(=O)(=O)[O-])[C@@]3(C)CCC2[C@@]2(C)CC[C@@H](O)C[C@@H]12.[Na+] (stereo partly drawn) [Form A of Compound 1-Na Formed via Suspension] [6α-ethyl-3α,7α,23-trihydroxy-24-nor-5β-cholan-23-sulphate sodium]
Storage @ 25° C./60% RH ([2]; 25° C./60% RH): successful for at least 1 month; also recorded: Unchanged for at least 1 month
Storage @ 25° C./97% RH [2]: Deliquesced in less than 3 days
Storage @ 40° C./75% RH [2]: Deliquesced in less than 3 days
